Earlier results, collected in patent US10125164B2, “Process for preparing D-arginyl-2,6-dimethyl-L-tyrosyl-L-lysyl-L-phenylalaninamide” (FLAMMA S.P.A., priority 2014, dated 2018).
Where a SMILES comes first, the peptide text is derived from it. [ ]: non-standard residue; d: D form. Dmt = Cc1cc(O)cc(C)c1C[C@H](N)C(=O)O

Key:
[1] = tested on: inner mitochondrial membrane
mouse pancreatic islets = settings: 3 mg/kg i.p. qd for 2 weeks
[2] = tested on: G93A mouse model of amyotrophic lateral sclerosis; settings: 5 mg/kg/day i.p. starting at 30 days of age
N2A neuronal cell line = settings: compound <1 nM
mu-opioid receptor = mu-opioid receptor (Homo sapiens, UniProt P35372)
mu-opioid receptor, sequence (P35372 whole entry): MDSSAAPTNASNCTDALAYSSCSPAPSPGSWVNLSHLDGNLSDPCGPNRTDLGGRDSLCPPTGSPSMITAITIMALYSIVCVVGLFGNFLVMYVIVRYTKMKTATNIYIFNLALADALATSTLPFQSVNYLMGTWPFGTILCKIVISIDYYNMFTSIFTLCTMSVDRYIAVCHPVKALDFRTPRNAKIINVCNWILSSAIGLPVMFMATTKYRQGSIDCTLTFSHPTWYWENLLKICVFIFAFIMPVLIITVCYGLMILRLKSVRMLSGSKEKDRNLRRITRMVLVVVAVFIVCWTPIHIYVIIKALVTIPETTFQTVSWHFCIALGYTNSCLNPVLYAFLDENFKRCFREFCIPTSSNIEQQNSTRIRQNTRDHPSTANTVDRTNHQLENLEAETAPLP

[3] = tested on: unilateral ureteral obstruction; settings: rats, intraperitoneal 1 and 3 mg/kg, 1 day prior to obstruction and every day thereafter for 14 days
[4] = tested on: SH-SY5Y neuronal cell line; settings: compound <1 nM

Structure (SMILES): Cc1cc(O)cc(C)c1C[C@H](NC(=O)[C@H](N)CCCNC(=N)N)C(=O)N[C@@H](CCCCN)C(=O)N[C@@H](Cc1ccccc1)C(N)=O [D-Arginyl-2,6-dimethyl-L-tyrosyl-L-lysyl-L-phenylalaninamide] (H-[dR][Dmt]KF-NH2)
- antioxidant activity [1]: showed antioxidant activity
- apoptosis in pancreatic islets caused by streptozotocin (mouse pancreatic islets): prevented
- insulin reduction in pancreatic islets caused by streptozotocin (mouse pancreatic islets): prevented
- disease onset [2]: significant delay
- intracellular reactive oxygen species (N2A neuronal cell line): significantly reduced
- mitochondrial potential (N2A neuronal cell line): increased
- tBHP-induced apoptosis (N2A neuronal cell line): prevented
- mu-opioid receptor agonist activity (mu-opioid receptor): does not have mu-opioid receptor agonist activity
- interstitial fibrosis [3]: significantly decreased
- macrophage infiltration [3]: significantly decreased
- tubular damage [3]: significantly decreased
- intracellular reactive oxygen species [4]: significantly reduced
- mitochondrial potential [4]: increased
- tBHP-induced apoptosis [4]: prevented
